Data reported in patent publication US20110172147A1, “NEUROPEPTIDE-2 RECEPTOR (Y-2R) AGONISTS” (priority 2009, published 2011).
Read-outs that look alike come from different tables or passages of the source.

Assays:
Y5R = molecular target: T1, Y5R (Homo sapiens, UniProt Q15761); assay: CaFlux Assay (FLIPR), Y5R; format: cell-based
T1 sequence (Q15761 1-445): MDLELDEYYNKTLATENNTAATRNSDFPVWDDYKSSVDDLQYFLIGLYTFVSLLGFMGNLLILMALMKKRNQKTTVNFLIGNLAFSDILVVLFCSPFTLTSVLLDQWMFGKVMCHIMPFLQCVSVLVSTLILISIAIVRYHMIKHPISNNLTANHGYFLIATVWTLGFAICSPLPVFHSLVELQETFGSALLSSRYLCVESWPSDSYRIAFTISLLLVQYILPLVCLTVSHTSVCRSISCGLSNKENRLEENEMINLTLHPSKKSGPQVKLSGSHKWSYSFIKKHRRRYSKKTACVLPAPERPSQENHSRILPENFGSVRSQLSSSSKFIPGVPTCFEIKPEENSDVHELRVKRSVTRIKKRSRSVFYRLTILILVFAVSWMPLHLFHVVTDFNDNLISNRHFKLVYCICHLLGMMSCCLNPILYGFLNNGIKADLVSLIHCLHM

hNPY2R = molecular target: T2, hNPY2R (Homo sapiens, UniProt P49146); assay: CaFlux Assay (FLIPR), Y2R; format: cell-based; design: expressed in transfected cells; host or cells: HEK-293 stably transfected with G protein chimera Gαqi9
T2 sequence (P49146 1-381): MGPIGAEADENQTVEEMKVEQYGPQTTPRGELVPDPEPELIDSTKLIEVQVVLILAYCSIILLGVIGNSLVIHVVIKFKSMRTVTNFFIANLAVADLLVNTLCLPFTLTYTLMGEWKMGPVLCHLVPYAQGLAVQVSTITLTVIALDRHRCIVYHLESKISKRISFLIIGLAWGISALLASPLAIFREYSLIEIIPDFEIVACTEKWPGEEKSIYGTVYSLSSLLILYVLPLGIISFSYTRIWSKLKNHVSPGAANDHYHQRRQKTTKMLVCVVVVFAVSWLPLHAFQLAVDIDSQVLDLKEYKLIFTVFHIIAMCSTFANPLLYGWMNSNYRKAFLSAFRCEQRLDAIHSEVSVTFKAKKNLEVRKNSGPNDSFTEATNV
How it was run: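 Stable HEK-293/Gαqi9 clones expressing receptor, pre-loaded 1 h at 37 °C with calcium dye containing 5 mM probenecid. Test compound in HBSS with 0.05% BSA and 1% DMSO added on FLIPR; baseline-corrected peak fluorescence taken as % of positive-control maximum.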

[1] = FLIPR; read-out: Y5R EC50 (nM) FLIPR
[2] = CaFlux (FLIPR), HEK-293 cells with Gαqi9 and human NPY2 receptor; read-out: Y2R EC50 (nM) FLIPR

Row | SMILES | EC50 (Y5R; [1]) | EC50 (hNPY2R; [2]) | EC50 (Y5R; read-out: Y5R EC50 (nM) FLIPR; FLIPR) | EC50 (hNPY2R; read-out: Y2R EC50 (nM) FLIPR; CaFlux (FLIPR), HEK-293 cells with Gαqi9 and human NPY2 receptor)
1 | CCCCCCCCCCCCCCCCCCCC(=O)N[C@@H](CCS(=O)(=O)O)C(=O)N[C@@H](CCS(=O)(=O)O)C(=O)NCCCC[C@H](NC(=O)[C@@H](NC(=O)CCOCCOCCOCCOCCOCCOCCOCCOCCOCCOCCOCCOCCOCCOCCOCCOCCOCCOCCOCCOCCOCCOCCOCCOC)[C@@H](C)CC)C(=O)N1CCN(c2ccc3ncn(CC(=O)N[C@@H](CCCNC(N)=O)C(=O)NC(Cc4c[nH]cn4)C(=O)N[C@@H](Cc4ccc(O)cc4)C(=O)NC(CC(C)C)C(=O)N[C@@H](CC(N)=O)C(=O)NC(Cc4c[nH]c5ccccc45)C(=O)N[C@H](C(=O)N[C@H](C(=O)N[C@@H](CCCNC(=N)N)C(=O)NC(CCC(N)=O)C(=O)N(C)[C@@H](CCCNC(=N)N)C(=O)NC(Cc4ccc(O)cc4)C(N)=O)[C@@H](C)O)C(C)C)c(=O)c3c2)CC1 (stereo partly drawn) [Example 28] | 1320 nM | 11.1 nM | – | –
2 | CCCCCCCCCCCCCCCC(=O)N[C@@H](CCS(=O)(=O)O)C(=O)N[C@@H](CCS(=O)(=O)O)C(=O)NCCCC[C@H](NC(=O)[C@@H](NC(=O)CCOCCOCCOCCOCCOCCOCCOCCOCCOCCOCCOCCOCCOCCOCCOCCOCCOCCOCCOCCOCCOCCOCCOCCOC)[C@@H](C)CC)C(=O)N1CCN(c2ccc3ncn(CC(=O)N[C@@H](CCCNC(=N)N)C(=O)NC(Cc4c[nH]cn4)C(=O)N[C@@H](Cc4ccc(O)cc4)C(=O)NC(CC(C)C)C(=O)N[C@@H](CC(N)=O)C(=O)NC(Cc4c[nH]c5ccccc45)C(=O)N[C@H](C(=O)N[C@H](C(=O)N[C@@H](CCCNC(=N)N)C(=O)NC(CCC(N)=O)C(=O)N(C)[C@@H](CCCNC(=N)N)C(=O)NC(Cc4ccc(O)cc4)C(N)=O)[C@@H](C)O)C(C)C)c(=O)c3c2)CC1 (stereo partly drawn) [Example 29] | > 6000 nM | 0.156 nM | – | –
3 | CC[C@H](C)[C@H](NC(C)=O)C(=O)N[C@@H](CCCCNC(=O)CCOCCOCCOCCOCCOCCOCCOCCOCCOCCOCCOCCOCCOCCOCCOCCOCCOCCOCCOCCOCCOCCOCCOCCOC)C(=O)N1CCN(c2ccc3ncn(CC(=O)N[C@@H](CCCNC(=N)N)C(=O)N[C@@H](Cc4c[nH]cn4)C(=O)N[C@@H](Cc4ccc(O)cc4)C(=O)N[C@@H](CC(C)C)C(=O)N[C@@H](CC(N)=O)C(=O)N[C@@H](Cc4c[nH]c5ccccc45)C(=O)N[C@H](C(=O)N[C@H](C(=O)N[C@@H](CCCNC(=N)N)C(=O)N[C@@H](CCC(N)=O)C(=O)N(C)[C@@H](CCCNC(=N)N)C(=O)N[C@@H](Cc4ccc(O)cc4)C(N)=O)[C@@H](C)O)C(C)C)c(=O)c3c2)CC1 [Example 21] | > 6000 nM | 0.139 nM | – | –
4 | CCCCCCCCCCCCCCCCCCCC(=O)NCCCCCC(=O)N[C@H](C(=O)N[C@@H](CCCCNC(=O)CCOCCOCCOCCOCCOCCOCCOCCOCCOCCOCCOCCOCCOCCOCCOCCOCCOCCOCCOCCOCCOCCOCCOCCOC)C(=O)N1CCN(c2ccc3ncn(CC(=O)N[C@@H](CCCNC(=N)N)C(=O)N[C@@H](Cc4c[nH]cn4)C(=O)N[C@@H](Cc4ccc(O)cc4)C(=O)N[C@@H](CC(C)C)C(=O)N[C@@H](CC(N)=O)C(=O)N[C@@H](Cc4c[nH]c5ccccc45)C(=O)N[C@H](C(=O)N[C@H](C(=O)N[C@@H](CCCNC(=N)N)C(=O)N[C@@H](CCC(N)=O)C(=O)N(C)[C@@H](CCCNC(=N)N)C(=O)N[C@@H](Cc4ccc(O)cc4)C(N)=O)[C@@H](C)O)C(C)C)c(=O)c3c2)CC1)[C@@H](C)CC [Example 35] | 1010 nM | 0.097 nM | – | –
5 | CC[C@H](C)[C@H](NC(=O)[C@H](CCC(=O)O)NC(=O)[C@H](CCC(=O)O)NC(=O)CCCCCCCCCCCCCCC(=O)O)C(=O)N[C@@H](CCCCNC(=O)CCOCCOCCOCCOCCOCCOCCOCCOCCOCCOCCOCCOCCOCCOCCOCCOC)C(=O)N1CCN(c2ccc3ncn(CC(=O)N[C@@H](CCCNC(=N)N)C(=O)N[C@@H](Cc4c[nH]cn4)C(=O)N[C@@H](Cc4ccc(O)cc4)C(=O)N[C@@H](CC(C)C)C(=O)N[C@@H](CC(N)=O)C(=O)N[C@@H](Cc4c[nH]c5ccccc45)C(=O)N[C@H](C(=O)N[C@H](C(=O)N[C@@H](CCCNC(=N)N)C(=O)N[C@@H](CCC(N)=O)C(=O)N(C)[C@@H](CCCNC(=N)N)C(=O)N[C@@H](Cc4ccc(O)cc4)C(N)=O)[C@@H](C)O)C(C)C)c(=O)c3c2)CC1 [Example 54] | – | – | > 6000 nM | 292 nM
6 | CCCCCCCCCCCCCCCCCCCC(=O)N[C@@H](CCS(=O)(=O)O)C(=O)N[C@@H](CCS(=O)(=O)O)C(=O)NCCCC[C@H](NC(=O)[C@@H](NC(=O)CCOCCOCCOCCOCCOCCOCCOCCOCCOCCOCCOCCOCCOCCOCCOCCOCCOCCOCCOCCOCCOCCOCCOCCOC)[C@@H](C)CC)C(=O)N1CCN(c2ccc3ncn(CC(=O)N[C@@H](CCCNC(=N)N)C(=O)NC(Cc4c[nH]cn4)C(=O)N[C@@H](Cc4ccc(O)cc4)C(=O)NC(CC(C)C)C(=O)N[C@@H](CC(N)=O)C(=O)NC(Cc4c[nH]c5ccccc45)C(=O)N[C@H](C(=O)N[C@H](C(=O)N[C@@H](CCCNC(=N)N)C(=O)NC(CCC(N)=O)C(=O)N(C)[C@@H](CCCNC(=N)N)C(=O)NC(Cc4ccc(O)cc4)C(N)=O)[C@@H](C)O)C(C)C)c(=O)c3c2)CC1 (stereo partly drawn) [Example 27] | > 6000 nM | 9.6 nM | – | –
